Data set [1] can be described thus: Cytotoxicity against human hTERT cells assessed as cell growth inhibition at 10 uM after 24 hrs relative to control. It counts as cell-based, hTERT-BJ.
Data set [2] is described as follows: Cytotoxicity against human U2OS cells assessed as cell growth inhibition at 10 uM after 48 hrs relative to control. In kind it is cell-based.
For a further data set, the target named is Aurora B (Homo sapiens, UniProt Q96GD4). The experiment in a line: Inhibition of Aurora B (unknown origin) at 10 uM relative to control.
The target in a further data set is T1, SIRT7 (Homo sapiens, UniProt Q9NRC8).
T1 sequence (Q9NRC8 whole entry): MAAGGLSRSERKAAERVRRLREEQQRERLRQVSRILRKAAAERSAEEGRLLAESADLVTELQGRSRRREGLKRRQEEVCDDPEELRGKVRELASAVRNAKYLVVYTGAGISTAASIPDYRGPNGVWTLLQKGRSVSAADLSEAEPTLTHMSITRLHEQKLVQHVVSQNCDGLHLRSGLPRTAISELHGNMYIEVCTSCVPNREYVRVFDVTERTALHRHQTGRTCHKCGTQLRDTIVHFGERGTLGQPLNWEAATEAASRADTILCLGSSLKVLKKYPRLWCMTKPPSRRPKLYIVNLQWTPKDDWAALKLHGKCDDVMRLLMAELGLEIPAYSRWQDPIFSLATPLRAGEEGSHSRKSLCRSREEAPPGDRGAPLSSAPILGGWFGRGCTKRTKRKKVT
The data set is described as follows: Inhibition of SIRT7 (unknown origin) at 10 uM relative to control.

The nature of data set [3]: Cytotoxicity against human HEK293 cells assessed as cell growth inhibition at 10 uM after 24 hrs relative to control. In kind it is cell-based.
Data set [4] is described as follows: Cytotoxicity against human HEK293 cells assessed as cell growth inhibition at 10 uM after 48 hrs relative to control. In kind it is cell-based.
For the next data set, the target named is HDAC4 (Homo sapiens, UniProt P56524). The experiment in a line: Inhibition of HDAC4 (unknown origin) at 10 uM relative to control.
In the next data set the target is CYP2D6 (Homo sapiens, UniProt P10635). The data set is described as follows: Inhibition of CYP2D6 (unknown origin) at 10 uM relative to control. In kind it is ADME.
For a further data set, the target named is hERG (KCNH2) (Homo sapiens, UniProt Q12809). The data set is described as follows: Inhibition of human ERG at 10 uM by fluorescence polarization assay relative to control. (In fluorescence polarisation assays a small probe gives low polarisation when free and higher when bound to something large.)
The target in data set [5] is 3',5'-cyclic-AMP phosphodiesterase 4C (Homo sapiens) (UniProt Q08493). The data set is described as follows: Inhibition of PDE4C1 (unknown origin) at 10 uM relative to control.
For the next data set, the target named is T2, CYP1A2 (Homo sapiens, UniProt P05177).
T2 sequence (P05177 whole entry): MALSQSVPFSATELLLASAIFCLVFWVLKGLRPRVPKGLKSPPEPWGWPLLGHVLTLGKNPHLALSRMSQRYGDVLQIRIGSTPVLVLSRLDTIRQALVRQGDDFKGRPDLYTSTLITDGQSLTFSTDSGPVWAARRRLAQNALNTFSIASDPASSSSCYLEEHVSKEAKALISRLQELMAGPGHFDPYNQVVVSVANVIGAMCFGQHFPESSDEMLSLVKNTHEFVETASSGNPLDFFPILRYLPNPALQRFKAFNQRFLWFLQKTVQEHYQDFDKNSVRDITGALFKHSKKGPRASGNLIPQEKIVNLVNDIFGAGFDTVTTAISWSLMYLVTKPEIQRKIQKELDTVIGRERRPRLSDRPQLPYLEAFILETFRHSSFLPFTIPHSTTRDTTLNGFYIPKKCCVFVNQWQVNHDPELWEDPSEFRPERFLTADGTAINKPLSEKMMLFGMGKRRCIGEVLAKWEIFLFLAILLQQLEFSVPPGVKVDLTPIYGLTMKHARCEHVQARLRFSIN
The data set is described as follows: Inhibition of CYP1A2 (unknown origin) at 10 uM relative to control. It counts as ADME.

Data set [6] in a line: Cytotoxicity against human U2OS cells assessed as cell growth inhibition at 10 uM after 24 hrs relative to control. It counts as cell-based.
A further data set concerns the target HDAC9 (Homo sapiens, UniProt Q9UKV0). The data set is described as follows: Inhibition of HDAC9 (unknown origin) at 10 uM relative to control.
In the next data set the target is T3, HDAC6 (Homo sapiens, UniProt Q9UBN7).
T3 sequence (Q9UBN7 whole entry): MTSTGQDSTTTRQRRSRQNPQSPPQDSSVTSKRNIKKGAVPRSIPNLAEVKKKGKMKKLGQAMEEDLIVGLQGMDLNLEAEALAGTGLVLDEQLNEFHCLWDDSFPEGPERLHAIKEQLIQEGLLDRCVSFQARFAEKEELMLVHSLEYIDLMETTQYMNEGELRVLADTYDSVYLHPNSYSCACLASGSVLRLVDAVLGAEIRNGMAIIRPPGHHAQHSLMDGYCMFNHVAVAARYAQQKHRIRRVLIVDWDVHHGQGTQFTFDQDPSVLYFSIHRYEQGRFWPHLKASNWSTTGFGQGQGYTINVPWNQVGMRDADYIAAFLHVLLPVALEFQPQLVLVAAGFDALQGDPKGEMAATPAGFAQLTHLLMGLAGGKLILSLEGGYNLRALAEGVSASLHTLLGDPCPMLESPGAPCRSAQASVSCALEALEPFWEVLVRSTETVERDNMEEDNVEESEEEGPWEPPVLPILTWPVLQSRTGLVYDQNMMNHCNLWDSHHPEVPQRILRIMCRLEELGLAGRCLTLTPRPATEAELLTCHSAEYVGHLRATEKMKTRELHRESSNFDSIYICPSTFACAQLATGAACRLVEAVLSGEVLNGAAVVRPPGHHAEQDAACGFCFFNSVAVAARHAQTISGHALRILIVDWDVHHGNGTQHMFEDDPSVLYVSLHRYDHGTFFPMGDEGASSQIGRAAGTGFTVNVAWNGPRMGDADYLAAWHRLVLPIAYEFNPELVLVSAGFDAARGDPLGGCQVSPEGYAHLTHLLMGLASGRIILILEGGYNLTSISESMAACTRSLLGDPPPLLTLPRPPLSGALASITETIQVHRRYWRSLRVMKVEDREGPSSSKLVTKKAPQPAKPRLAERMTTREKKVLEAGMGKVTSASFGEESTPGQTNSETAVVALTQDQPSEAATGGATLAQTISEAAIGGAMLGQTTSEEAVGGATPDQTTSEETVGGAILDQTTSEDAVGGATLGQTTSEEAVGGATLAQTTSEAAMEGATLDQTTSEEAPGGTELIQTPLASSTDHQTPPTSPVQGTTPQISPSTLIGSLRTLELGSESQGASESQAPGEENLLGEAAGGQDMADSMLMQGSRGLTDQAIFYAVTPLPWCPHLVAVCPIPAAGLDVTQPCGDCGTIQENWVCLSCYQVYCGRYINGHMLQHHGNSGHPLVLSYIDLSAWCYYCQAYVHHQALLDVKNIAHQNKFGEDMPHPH
The data set is described as follows: Inhibition of HDAC6 (unknown origin) at 10 uM relative to control.

In the next data set the target is CYP3A4 (Homo sapiens, UniProt P08684). The experiment in a line: Inhibition of CYP3A4 (unknown origin) at 10 uM relative to control. In kind it is ADME.
For the next data set, the target named is T4, HDAC8 (Homo sapiens, UniProt Q9BY41).
T4 sequence (Q9BY41 whole entry): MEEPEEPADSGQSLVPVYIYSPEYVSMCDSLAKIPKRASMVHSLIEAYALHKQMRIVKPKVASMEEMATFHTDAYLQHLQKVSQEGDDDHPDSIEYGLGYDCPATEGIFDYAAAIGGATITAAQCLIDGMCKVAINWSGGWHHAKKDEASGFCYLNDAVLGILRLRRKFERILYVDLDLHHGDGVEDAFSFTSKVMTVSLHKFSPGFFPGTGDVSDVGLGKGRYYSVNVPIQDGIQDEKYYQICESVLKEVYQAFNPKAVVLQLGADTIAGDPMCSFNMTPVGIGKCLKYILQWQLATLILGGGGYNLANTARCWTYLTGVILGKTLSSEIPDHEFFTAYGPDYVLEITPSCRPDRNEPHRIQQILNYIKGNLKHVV
The data set is described as follows: Inhibition of HDAC8 (unknown origin) at 10 uM relative to control.

For the next data set, the target named is CYP2C9 (Homo sapiens, UniProt P11712). The data set is described as follows: Inhibition of CYP2C9 (unknown origin) at 10 uM relative to control. It counts as ADME.
A short description of data set [7]: Cytotoxicity against human MCF7 cells assessed as cell growth inhibition at 10 uM after 48 hrs relative to control. It counts as cell-based.
The nature of data set [8]: Cytotoxicity against human hTERT cells assessed as cell growth inhibition at 10 uM after 48 hrs relative to control. It counts as cell-based, hTERT-BJ.
For another data set, the target named is CYP2C19 (Homo sapiens, UniProt P33261). The experiment in a line: Inhibition of CYP2C19 (unknown origin) at 10 uM relative to control. It counts as ADME.
A short description of data set [9]: Cytotoxicity against human MCF7 cells assessed as cell growth inhibition at 10 uM after 24 hrs relative to control. It counts as cell-based.

CYP2D6, sequence (P10635 whole entry): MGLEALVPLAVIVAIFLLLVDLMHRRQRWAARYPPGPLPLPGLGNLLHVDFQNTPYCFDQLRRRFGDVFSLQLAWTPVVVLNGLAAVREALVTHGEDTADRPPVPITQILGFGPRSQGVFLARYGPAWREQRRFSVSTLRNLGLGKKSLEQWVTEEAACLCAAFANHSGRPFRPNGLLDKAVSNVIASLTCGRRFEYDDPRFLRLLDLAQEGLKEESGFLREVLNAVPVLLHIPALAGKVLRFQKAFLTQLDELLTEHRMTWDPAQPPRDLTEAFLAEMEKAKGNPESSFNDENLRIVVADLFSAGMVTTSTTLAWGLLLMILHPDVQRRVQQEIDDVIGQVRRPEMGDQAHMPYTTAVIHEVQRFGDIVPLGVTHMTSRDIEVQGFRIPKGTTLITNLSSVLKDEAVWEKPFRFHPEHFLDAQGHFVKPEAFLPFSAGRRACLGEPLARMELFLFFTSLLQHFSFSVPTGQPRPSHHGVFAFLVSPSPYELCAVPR
3',5'-cyclic-AMP phosphodiesterase 4C (Homo sapiens), sequence (Q08493 whole entry): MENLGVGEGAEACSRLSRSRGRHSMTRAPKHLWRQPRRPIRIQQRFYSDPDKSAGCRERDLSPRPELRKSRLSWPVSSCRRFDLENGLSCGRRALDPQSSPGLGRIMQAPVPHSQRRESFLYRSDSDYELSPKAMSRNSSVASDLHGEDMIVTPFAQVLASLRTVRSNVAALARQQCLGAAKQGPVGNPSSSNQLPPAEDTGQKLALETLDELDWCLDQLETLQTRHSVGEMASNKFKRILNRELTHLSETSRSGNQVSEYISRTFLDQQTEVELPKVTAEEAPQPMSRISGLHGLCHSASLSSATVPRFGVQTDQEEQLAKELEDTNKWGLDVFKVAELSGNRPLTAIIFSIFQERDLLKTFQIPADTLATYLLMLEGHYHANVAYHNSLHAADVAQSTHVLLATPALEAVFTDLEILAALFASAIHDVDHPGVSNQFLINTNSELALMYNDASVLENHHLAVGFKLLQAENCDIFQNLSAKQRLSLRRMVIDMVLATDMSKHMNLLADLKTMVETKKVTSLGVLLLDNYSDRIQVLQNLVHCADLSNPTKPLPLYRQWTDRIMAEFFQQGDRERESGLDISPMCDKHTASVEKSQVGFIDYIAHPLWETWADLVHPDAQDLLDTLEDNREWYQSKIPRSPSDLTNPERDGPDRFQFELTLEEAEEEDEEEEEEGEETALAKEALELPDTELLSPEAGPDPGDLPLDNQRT
CYP3A4, sequence (P08684 whole entry): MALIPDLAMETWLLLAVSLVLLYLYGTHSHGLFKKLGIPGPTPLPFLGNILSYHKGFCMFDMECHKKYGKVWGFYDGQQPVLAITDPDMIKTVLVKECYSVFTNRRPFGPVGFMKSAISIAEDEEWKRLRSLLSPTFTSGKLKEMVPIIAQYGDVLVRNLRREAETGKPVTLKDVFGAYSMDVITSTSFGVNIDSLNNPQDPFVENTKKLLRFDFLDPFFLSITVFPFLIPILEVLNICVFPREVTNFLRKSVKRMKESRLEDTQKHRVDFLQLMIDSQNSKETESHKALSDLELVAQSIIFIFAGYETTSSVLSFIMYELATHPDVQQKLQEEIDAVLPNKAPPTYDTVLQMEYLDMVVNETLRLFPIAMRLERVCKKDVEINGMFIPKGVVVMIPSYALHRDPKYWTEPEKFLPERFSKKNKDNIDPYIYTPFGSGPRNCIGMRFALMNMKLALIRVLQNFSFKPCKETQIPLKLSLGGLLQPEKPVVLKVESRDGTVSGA
CYP2C19, sequence (P33261 whole entry): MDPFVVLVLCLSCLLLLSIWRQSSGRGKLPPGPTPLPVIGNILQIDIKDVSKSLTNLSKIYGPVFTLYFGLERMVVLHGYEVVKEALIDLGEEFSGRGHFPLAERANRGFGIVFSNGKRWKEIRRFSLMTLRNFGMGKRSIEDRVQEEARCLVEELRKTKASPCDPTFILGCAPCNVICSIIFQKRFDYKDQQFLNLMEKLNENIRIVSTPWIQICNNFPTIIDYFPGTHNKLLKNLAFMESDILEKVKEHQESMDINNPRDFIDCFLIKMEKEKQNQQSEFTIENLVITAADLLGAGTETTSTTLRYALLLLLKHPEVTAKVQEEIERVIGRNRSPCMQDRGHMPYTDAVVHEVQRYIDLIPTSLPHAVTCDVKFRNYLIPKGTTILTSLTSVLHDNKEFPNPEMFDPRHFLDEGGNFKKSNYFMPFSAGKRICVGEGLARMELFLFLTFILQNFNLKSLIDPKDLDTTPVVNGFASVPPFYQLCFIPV
hERG (KCNH2), sequence (Q12809 whole entry): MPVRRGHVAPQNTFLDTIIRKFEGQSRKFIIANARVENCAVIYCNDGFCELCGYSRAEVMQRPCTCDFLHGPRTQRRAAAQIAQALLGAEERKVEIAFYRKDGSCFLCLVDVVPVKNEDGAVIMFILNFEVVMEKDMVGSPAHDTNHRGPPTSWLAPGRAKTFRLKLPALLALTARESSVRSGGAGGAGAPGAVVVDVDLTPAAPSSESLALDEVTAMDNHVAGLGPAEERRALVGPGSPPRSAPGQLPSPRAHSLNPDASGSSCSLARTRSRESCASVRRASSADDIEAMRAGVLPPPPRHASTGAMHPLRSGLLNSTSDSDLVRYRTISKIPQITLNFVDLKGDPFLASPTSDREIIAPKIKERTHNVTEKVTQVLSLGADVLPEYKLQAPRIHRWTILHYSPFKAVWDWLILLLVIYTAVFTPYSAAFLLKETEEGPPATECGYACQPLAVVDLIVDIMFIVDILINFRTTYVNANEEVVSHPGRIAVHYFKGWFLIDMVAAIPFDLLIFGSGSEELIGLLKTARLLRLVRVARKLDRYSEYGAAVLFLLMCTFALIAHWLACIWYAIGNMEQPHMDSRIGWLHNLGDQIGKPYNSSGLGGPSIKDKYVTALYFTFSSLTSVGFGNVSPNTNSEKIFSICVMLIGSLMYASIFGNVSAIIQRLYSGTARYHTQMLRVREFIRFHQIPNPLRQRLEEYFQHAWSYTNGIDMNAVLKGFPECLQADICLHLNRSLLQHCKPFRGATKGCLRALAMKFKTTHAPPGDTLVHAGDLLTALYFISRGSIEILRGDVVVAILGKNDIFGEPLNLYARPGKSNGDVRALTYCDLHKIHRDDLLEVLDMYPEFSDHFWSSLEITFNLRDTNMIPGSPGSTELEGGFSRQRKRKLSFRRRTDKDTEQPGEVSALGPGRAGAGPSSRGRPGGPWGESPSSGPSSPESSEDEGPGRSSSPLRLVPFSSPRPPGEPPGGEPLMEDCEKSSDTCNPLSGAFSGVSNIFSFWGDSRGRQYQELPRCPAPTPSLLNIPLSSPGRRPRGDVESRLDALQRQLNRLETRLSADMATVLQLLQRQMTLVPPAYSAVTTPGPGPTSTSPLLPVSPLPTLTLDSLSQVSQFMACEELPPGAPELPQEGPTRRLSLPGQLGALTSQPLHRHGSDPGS
HDAC9, sequence (Q9UKV0 whole entry): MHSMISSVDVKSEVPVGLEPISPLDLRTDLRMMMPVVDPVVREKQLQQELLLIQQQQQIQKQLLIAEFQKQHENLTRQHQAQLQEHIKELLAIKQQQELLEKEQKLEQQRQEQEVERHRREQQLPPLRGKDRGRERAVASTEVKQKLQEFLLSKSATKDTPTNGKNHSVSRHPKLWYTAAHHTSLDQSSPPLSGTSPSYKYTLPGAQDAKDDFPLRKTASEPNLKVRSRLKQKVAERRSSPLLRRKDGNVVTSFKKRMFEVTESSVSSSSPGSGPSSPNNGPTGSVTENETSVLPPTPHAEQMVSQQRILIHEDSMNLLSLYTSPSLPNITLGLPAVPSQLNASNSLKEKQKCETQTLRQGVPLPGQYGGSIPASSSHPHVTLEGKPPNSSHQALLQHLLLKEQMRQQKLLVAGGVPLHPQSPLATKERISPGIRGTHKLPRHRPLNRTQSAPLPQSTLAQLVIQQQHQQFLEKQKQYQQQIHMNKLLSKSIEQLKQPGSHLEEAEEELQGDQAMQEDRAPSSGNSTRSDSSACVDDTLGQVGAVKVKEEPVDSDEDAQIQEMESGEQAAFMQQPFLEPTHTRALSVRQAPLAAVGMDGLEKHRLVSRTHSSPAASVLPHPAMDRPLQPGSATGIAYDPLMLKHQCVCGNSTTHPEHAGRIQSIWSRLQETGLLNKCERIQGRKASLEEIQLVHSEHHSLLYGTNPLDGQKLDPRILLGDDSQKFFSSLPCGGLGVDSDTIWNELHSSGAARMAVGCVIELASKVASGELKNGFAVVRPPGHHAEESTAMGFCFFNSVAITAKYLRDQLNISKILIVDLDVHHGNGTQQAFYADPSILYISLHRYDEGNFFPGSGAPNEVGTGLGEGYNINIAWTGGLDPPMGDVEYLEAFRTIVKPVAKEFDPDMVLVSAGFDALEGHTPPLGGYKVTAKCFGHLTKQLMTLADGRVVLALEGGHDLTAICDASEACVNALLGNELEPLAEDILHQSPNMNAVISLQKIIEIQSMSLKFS
CYP2C9, sequence (P11712 whole entry): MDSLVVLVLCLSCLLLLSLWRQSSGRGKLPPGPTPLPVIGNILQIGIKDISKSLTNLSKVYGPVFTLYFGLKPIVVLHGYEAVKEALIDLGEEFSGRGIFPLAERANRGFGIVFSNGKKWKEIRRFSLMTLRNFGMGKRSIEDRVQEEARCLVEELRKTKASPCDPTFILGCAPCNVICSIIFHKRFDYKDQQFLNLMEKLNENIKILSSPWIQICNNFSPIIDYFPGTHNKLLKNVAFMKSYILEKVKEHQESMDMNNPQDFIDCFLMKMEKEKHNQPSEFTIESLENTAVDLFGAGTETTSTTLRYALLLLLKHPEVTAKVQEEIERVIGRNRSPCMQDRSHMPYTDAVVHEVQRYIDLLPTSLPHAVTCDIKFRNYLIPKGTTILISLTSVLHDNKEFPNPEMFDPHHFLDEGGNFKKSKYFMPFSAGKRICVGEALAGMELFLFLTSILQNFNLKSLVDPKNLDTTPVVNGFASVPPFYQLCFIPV

What is called inhibition is the drop in the measured response relative to a control, in per cent. Consider `CCNc1ccc(Cc2c(C)cc(OCC(=O)O)cc2C)cc1C(C)C`, for which the inhibition at 24 h, 10 µM in data set [1], in data set [3], in data set [6] and in [9] was less than 50% each time. The inhibition at 48 h, 10 µM in data set [2], in data set [4], in [7] and in [8] was less than 50% each time. In addition, the inhibition at 10 µM against Aurora B is less than 50%; against SIRT7 it was less than 50%; at HDAC4, less than 50%; at CYP2D6, 51%; against hERG (KCNH2), 51%; on CYP1A2, 51%. For the same compound, the inhibition at 10 µM on HDAC9 was less than 50%; against HDAC6, less than 50%; against CYP3A4 it was more than 91%; on HDAC8, less than 50%; against CYP2C9 it was more than 91%; against CYP2C19, more than 91%. Also, the inhibition in data set [5] is less than 50%.

In the case of `NCCOc1ccc(Cc2ccc(N)cc2)c(C(F)(F)F)c1`, the inhibition at 24 h, 10 µM in data set [1], in data set [3], in data set [6] and in data set [9] was less than 50% each time. The inhibition at 48 h, 10 µM in data set [2], in data set [4], in data set [7] and in [8] was less than 50% each time. Moreover, the inhibition at 10 µM at Aurora B is less than 50%; against SIRT7 it was less than 50%; at HDAC4, less than 50%; at CYP2D6 it was 51%; on hERG (KCNH2) it was 51%; against CYP1A2, more than 91%. The inhibition at 10 µM against HDAC9 was less than 50%; against HDAC6, less than 50%; against CYP3A4 it was 51%; against HDAC8, less than 50%; against CYP2C9, more than 91%; against CYP2C19, more than 91%. Also, the inhibition in data set [5] was less than 50%.

With `Nc1ccc(Cc2ccc(OCC(=O)O)cc2F)cc1`, the inhibition at 24 h, 10 µM in [1], in data set [3], in data set [6] and in [9] was less than 50% in each case. The inhibition at 48 h, 10 µM in [2], in data set [4], in [7] and in data set [8] was less than 50% throughout. The inhibition at 10 µM at Aurora B was less than 50%; against SIRT7, less than 50%; against HDAC4 it was less than 50%; against CYP2D6, less than 50%; on hERG (KCNH2), more than 91%; against CYP1A2 it was less than 50%. For the same compound, the inhibition at 10 µM was less than 50% on HDAC9; less than 50% at HDAC6; less than 50% against CYP3A4; less than 50% against HDAC8; 51% against CYP2C9; less than 50% against CYP2C19. The same compound displayed an inhibition in data set [5] of less than 50%.

On to `Cc1cc(OCC(=O)O)cc(C)c1Cc1ccc(N)cc1`, for which the inhibition at 24 h, 10 µM in data set [1], in data set [3], in data set [6] and in data set [9] was less than 50% each time. Also, the inhibition at 48 h, 10 µM in data set [2], in data set [4], in data set [7] and in [8] was less than 50% throughout. For the same compound, the inhibition at 10 µM is less than 50% against Aurora B; less than 50% on SIRT7; less than 50% against HDAC4; less than 50% against CYP2D6; less than 25% against hERG (KCNH2); less than 50% against CYP1A2. Moreover, the inhibition at 10 µM on HDAC9, on HDAC6, against CYP3A4, against HDAC8, against CYP2C9 and against CYP2C19 was less than 50% each time. In data set [5], the inhibition was less than 50%.

The values above are taken from ChEMBL document CHEMBL4680157, “Design, synthesis and biological evaluation of novel TRβ selective agonists sustained by ADME-toxicity analysis” (Eur J Med Chem, 2020).
